Where “and” joins values, the source holds several entries; their conditions need not be identical. Equal entries are not always repeated.

The record followed here is US20110077270A1, “Compositions and Methods for Treating Ocular Inflammation with Lower Risk of Increased Intraocular Pressure” (priority 2009, published 2011).

The test system of data set [1] is myocilin mRNA in monkey TM cells. As to the kind of experiment: Myocilin mRNA expression in monkey TM cells (qRT-PCR). It is filed as cell-based, rhesus monkeys (Macaca mulatta). The note with it: for EC50: expression of myocilin mRNA, weighted averages, two dose-response studies each using two monkey TM cell strains. Here is the method:
For each study, up to nine TM cell strains, each derived from an individual monkey, were tested separately. Cells were thawed and seeded into 12- or 48-well clusters (Falcon, BD Biosciences; 150,000 and 30,000 cells/well, respectively) in proliferation medium. When cells were 75% to 90% confluent proliferation medium was replaced by a 5:4 mixture of HESFM and Dulbecco's MEM, respectively, supplemented with 10% FBS, with added taurine, ascorbic acid phosphate, glutathione, and antibiotic as for proliferation medium (above), and with 2.72 g/L glucose and 1.72 g/L fructose. At confluence, the medium was changed to Dulbecco's MEM, containing 10% FBS^40, ascorbic acid phosphate, antibiotic, 2.72 g/L glucose and 1.72 g/L fructose. Cells were maintained as stable, confluent monolayers in this latter medium for 4 to 7 days before experimental treatments commenced.
After quantification of purified total RNA (Quant-iT RNA Assay kit, Molecular Probes, Eugene, Oreg.), equivalent amounts of this RNA were apportioned to generate first-strand cDNAs for each treatment sample, using random primers, (Affinity Script, Stratagene, La Jolla, Calif.). Oligonucleotide myocilin primers, designed based on the cynomolgus MYOC gene, and fluorescent Taqman probe (Applied Biosystems, Foster City, Calif.) were used for PCR amplification. Equal amounts of total RNA-equivalent mass (approximate range […]) reactant cDNA were added to the PCR Master Mix (Stratagene) and myocilin primers/Taqman probe. Amplification was performed in a thermocycler (Mx3005P, Stratagene), with an initial denaturation step at 95° C. for 10 min, followed by 40 cycles of 95° C. for 15 sec and 60° C. for 1 min for extension. Every run included standard controls (i.e., either without reverse transcriptase or lacking template). Relative quantities of myocilin mRNA abundance were determined using differences in threshold cycles (“Ct”) between vehicle control and drug treatments. Each sample was analyzed in triplicate wells, and the corresponding values averaged for further quantitative analysis. Myocilin mRNA abundance, expressed in proportion to vehicle control-treated samples, was calculated using the Mx3005P software.
Data underwent Box-Cox transformations for one- or two-way analysis of variance (ANOVA), followed by the Tukey-Kramer test, using JMP software (SAS, Cary, N.C.). The specific transformations used for analyses are mentioned in the figure legends. For each set of triplicate samples from the individual monkey TM cell strains tested, Western blot densitometry values for myocilin protein detected in CM (as geometric means), and relative abundance of myocilin mRNA (as geometric means), were plotted as a function of drug concentrations. P-values less than 0.05 were considered statistically significant. […]

Data set [2] deals with rabbit paracentesis model. Nature of the data set: Pupillary diameter measurement, rabbit paracentesis model. It is filed as in vivo. The note with it: individual eye; for Pupillary diameter T1: −180 min: 50 μl drops, basal; for Pupillary diameter T2: −5 min: 5 min before first paracentesis; for Pupillary diameter T3: +115 min: 5 min before second paracentesis; for Pupillary diameter Δ(T3 − T1): +115 min minus −180 min. How it is done:
(§1) Each rabbit was placed in a restraint device and tagged with the alphanumeric code. The formulations were instilled (50 μl) into the conjunctival sac of both eyes 180, 120, 90 and 30 min before the first paracentesis; then 15, 30, 90 min after the first paracentesis. To perform the first paracentesis the animals were anaesthetized by intravenous injection of 5 mg/kg Zoletil® (Virbac; 2.5 mg/kg tiletamine HCl and 2.5 mg/kg zolazepam HCl) and one drop of local anesthetic (Novesina®, Novartis) was administered to the eye. Anterior chamber paracentesis was performed with a 26 G needle attached to a tuberculin syringe; the needle was introduced into the anterior chamber through the cornea, taking care not to damage the tissues. Two hours after the first paracentesis, the animals were sacrificed with 0.4 ml Tanax® (Intervet International B.V.) and the second paracentesis was performed. About 100 μl of aqueous humor were removed at the second paracentesis. Aqueous humor was immediately split in four aliquots and stored at −80° C. until analysis. Then both eyes were enucleated and the iris-ciliary body was carefully excised, placed in polypropylene tubes, and stored at −80° C. until analysis.
The pupillary diameter of both eyes was measured with a Castroviejo caliper 180 min and 5 min before the first paracentesis and 5 min before the second paracentesis.

For data set [3], the system named is PGE2 in the aqueous humor. As to the kind of experiment: Prostaglandin E2 (PGE2) measurement in aqueous humor, rabbit paracentesis model. It is filed as in vivo. The note with it: second paracentesis; for PGE2 level in aqueous humor, Mean: group mean; for PGE2 level in aqueous humor: individual eye. Here is the method:
as §1
For the quantitative determination of PGE2 in the aqueous humor we used the PGE2 Immunoassay kit (R&D Systems; Cat. No. KGE004; Lot. No. 240010). Eleven microliters or 16 μl of aqueous humor were diluted to 110 μl or 160 μl with the calibrator diluent solution provided with the kit. One hundred microliters of samples and of standards were load into a 96-well plate and recorded in a plate layout. Samples were treated following the assay procedure described in the kit. A microplate reader (GDV, Italy; model DV 990 B/V6) set at 450 nm (wavelength correction at 540 nm) was used for making the calibration and analyzing the samples.

The subject of another data set is monkey TM cells. As to the kind of experiment: Cell metabolic activity (resazurin reduction) assay in monkey TM cells. It is filed as cell-based, rhesus monkeys (Macaca mulatta). The note with it: 3 to 300 nM, end of treatment period; results not shown. Here is the method:
A modification of previously described methods^40 was employed to evaluate cell metabolic activity, an index of cell viability. After collection of CM samples, cells were briefly rinsed in modified Hanks balanced salt solution containing Ca^++ and Mg^++ (“MHBSS”), and then 0.0025% (w/v) resazurin (Sigma) in MHBSS was added to sample wells. Plates were incubated (37° C., 5% CO2, 95% humidity) for 90 minutes, after which fluorescence (Excitation 560 nm, Emission 590 nm) was read (Victor 3V Multilabel Counter, Wallac, Turku, Finland). As a positive control for decreased cellular metabolic reduction of resazurin, in each plate an additional well of vehicle control-treated cells was preincubated with 0.06% hydrogen peroxide (Fisher, Atlanta, Ga.) in MHBSS.
In general terms: Alamar Blue is a resazurin reagent that responds to reducing activity.

[4] abbreviates: 0.1% topical formulation, listed as BOL.
Where [5] appears, read: 0.5% topical formulation, listed as BOL.
Setting [6] is: 1% topical formulation, listed as BOL.

Regarding `Cc1ccc2c(NCC(O)(CC(C)(C)c3cc(F)cc4c3OCC4)C(F)(F)F)cccc2n1` (stereo not drawn) [BOL-303242-X], the “Myocilin mRNA abundance compared with DEX” value in data set [1] (3 to 300 nM) is “significantly lower mRNA abundance values at all doses compared with DEX”. For the same compound, the Emax at 0.3 µM in data set [1] (Primates, read-out: Maximal efficacy for myocilin mRNA expression, relative to DEX, 300 nM, single monkey TM cell strain (FIG. 5)) is about 67%. In data set [1] (Primates), the half-maximal effective concentration (EC50) turned out to be 20.8 ± 2.74 nM. Besides, the “Pupillary diameter T1: −180 min” value in data set [2] (setting [4]) was 6.5 mm (4×) and 7.0 mm (3×) and 7.5 mm; in data set [2] (setting [5]), 8.0 mm (3×) and 7.0 mm (3×) and 7.5 mm (2×); in data set [2] (setting [6]), 6.0 mm (3×) and 6.5 mm (5×). Further, the “Pupillary diameter T2: −5 min” value is 6.5 mm (3×) and 7.0 mm (4×) and 7.5 mm in data set [2] (setting [4]); 8.0 mm (3×) and 7.0 mm (4×) and 7.5 mm in data set [2] (setting [5]); 6.0 mm (2×) and 6.5 mm (4×) and 7.0 mm (2×) in data set [2] (setting [6]). For the same compound, the “Pupillary diameter T3: +115 min” value in data set [2] (setting [4]) was 5.0 mm (2×) and 6.0 mm (3×) and 6.5 mm and 5.5 mm (2×); in data set [2] (setting [5]) it was 6.5 mm (4×) and 6.0 mm (2×) and 7.0 mm (2×); in data set [2] (setting [6]), 5.5 mm (2×) and 5.0 mm (4×) and 6.0 mm (2×). Further, the “Pupillary diameter Δ(T3 − T1)” value in data set [2] (setting [4]) was −1.5 mm (4×) and −0.5 mm (2×) and −1.0 mm (2×); in data set [2] (setting [5]), −1.5 mm (2×) and −0.5 mm (2×) and −1.0 mm (4×); in data set [2] (setting [6]), −0.5 mm (3×) and −1.5 mm (2×) and −1.0 mm (3×). Moreover, the entries for the “PGE2 level in aqueous humor, Mean” value in data set [3] (0.1% topical formulation), in data set [3] (0.5% topical formulation) and in data set [3] (1% topical formulation) were 1.452 ng/mL, 1.384 ng/mL and 2.168 ng/mL, respectively. In addition, the “PGE2 level in aqueous humor” value in data set [3] (setting [4]) is 1.62 ng/mL and 1.88 ng/mL and 2.15 ng/mL and 0.70 ng/mL and 1.34 ng/mL and 1.03 ng/mL; in data set [3] (setting [5]) it was 2.31 ng/mL and 2.59 ng/mL and 0.53 ng/mL and 0.75 ng/mL and 0.80 ng/mL and 1.62 ng/mL and 1.09 ng/mL; in data set [3] (setting [6]), 0.50 ng/mL and 1.87 ng/mL and 1.71 ng/mL and 4.04 ng/mL and 1.11 ng/mL and 3.78 ng/mL. Further, the “Cell viability compared to vehicle controls (resazurin reduction)” value in the data set on monkey TM cells is given as “nor did any drug treatments result in a loss of cell viability”.
`C[C@@H]1C[C@H]2[C@@H]3CCC4=CC(=O)C=C[C@]4(C)[C@@]3(F)[C@@H](O)C[C@]2(C)[C@@]1(O)C(=O)CO` [Dex, dexamethasone, reference compound] yielded an EC50 in data set [1] (Primates) of 14.7 ± 1.27 nM. In data set [2] (0.1% topical formulation), the “Pupillary diameter T1: −180 min” value was 6.0 mm and 7.0 mm (2×) and 5.5 mm (2×) and 6.5 mm (3×); the “Pupillary diameter T2: −5 min” value was 5.5 mm and 6.5 mm (3×) and 6.0 mm (2×) and 7.0 mm and 7.5 mm; the “Pupillary diameter T3: +115 min” value is 5.5 mm (3×) and 6.0 mm (2×) and 4.5 mm and 5.0 mm and 6.5 mm; the “Pupillary diameter Δ(T3 − T1)” value was −0.5 mm (3×) and −1.5 mm (2×) and 0.5 mm and 0.0 mm and −2.0 mm. For the same compound, in data set [3] (0.1% topical formulation), the “PGE2 level in aqueous humor, Mean” value amounted to 2.263 ng/mL; the “PGE2 level in aqueous humor” value is 2.51 ng/ml and 2.32 ng/ml (2×) and 2.10 ng/ml and 3.03 ng/ml and 1.30 ng/ml. The “Cell viability compared to vehicle controls (resazurin reduction)” value in the data set on monkey TM cells is listed as “nor did any drug treatments result in a loss of cell viability”.

The term EC50 denotes the concentration needed to bring the measured effect to its halfway point.
